Results on 14 compounds are retold here after PubChem BioAssay AID180 (DTP/NCI, 2004).

“And” between values parts separate entries of the source, which are not always exact repeats. Identical values can stand only once.

As usually defined, the T/C is the result in the treated group divided by that in the control group, in per cent.

In the experiment the test system is BDF1 mice, Adenocarcinoma 755 s.c., tumor weight T/C. Put plainly: NCI In Vivo Anticancer Drug Screen. Data for tumor model Adenocarcinoma 755 (subcutaneous) in B6D2F1 (BDF1) mice. As to conditions: endpoint: mean tumor weight, higher = larger tumour. An outline of the steps:
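Compound activity was tested in mice carrying transplanted tumors. Survival or tumor size was measured, and each value is the treated-group measurement divided by that of the vehicle-treated control group (T/C).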

Setting [1] is: dose: 25.0 mg/kg/injection, schedule: Q01DX011 (ip), vehicle: carboxymethylcellulose (CMC).
Where [2] appears, read: dose: 30.0 mg/kg/injection, schedule: Q01DX011 (ip), vehicle: carboxymethylcellulose (CMC).
Setting [3] is: dose: 60.0 mg/kg/injection, schedule: Q01DX011 (ip), vehicle: carboxymethylcellulose (CMC).
[4] abbreviates: dose: 120.0 mg/kg/injection, schedule: Q01DX011 (ip), vehicle: carboxymethylcellulose (CMC).
[5] abbreviates: dose: 240.0 mg/kg/injection, schedule: Q01DX011 (ip), vehicle: carboxymethylcellulose (CMC).
The mark [6] stands for this setting: dose: 50.0 mg/kg/injection, schedule: Q01DX011 (ip), vehicle: carboxymethylcellulose (CMC).
[7] abbreviates: dose: 100.0 mg/kg/injection, schedule: Q01DX011 (ip), vehicle: carboxymethylcellulose (CMC).
Setting [8] is: dose: 125.0 mg/kg/injection, schedule: Q01DX011 (ip), vehicle: carboxymethylcellulose (CMC).
Setting [9] is: dose: 200.0 mg/kg/injection, schedule: Q01DX011 (ip), vehicle: carboxymethylcellulose (CMC).
Setting [10] is: dose: 250.0 mg/kg/injection, schedule: Q01DX011 (ip), vehicle: carboxymethylcellulose (CMC).
Where [11] appears, read: dose: 500.0 mg/kg/injection, schedule: Q01DX011 (ip), vehicle: carboxymethylcellulose (CMC).

For `CCCCn1cnc2c(=S)nc[nH]c21`, the T/C runs as follows: (dose: 2.5 mg/kg/injection, schedule: Q01DX011 (ip), vehicle: carboxymethylcellulose (CMC)) 62 % of control; (dose: 5.0 mg/kg/injection, schedule: Q01DX011 (ip), vehicle: carboxymethylcellulose (CMC)) 25 % of control; (dose: 5.0 mg/kg/injection, schedule: Q01DX011 (ip), vehicle: olive oil, sesame oil, peanut oil) 41 % of control; (dose: 5.0 mg/kg/injection, schedule: Q#A X022 (ip), vehicle: carboxymethylcellulose (CMC)) 4 % of control; (dose: 8.0 mg/kg/injection, schedule: Q01DX011 (ip), vehicle: carboxymethylcellulose (CMC)) 32 % of control; (dose: 10.0 mg/kg/injection, schedule: Q01DX006 (iv), vehicle: carboxymethylcellulose (CMC)) 20 % of control. The T/C was 5 % of control (dose: 10.0 mg/kg/injection, schedule: Q01DX011 (im), vehicle: carboxymethylcellulose (CMC)); 2 % of control (dose: 10.0 mg/kg/injection, schedule: Q01DX011 (ip), vehicle: carboxymethylcellulose (CMC)); 14 % of control (dose: 10.0 mg/kg/injection, schedule: Q01DX011 (ip), vehicle: olive oil, sesame oil, peanut oil); 1 % of control (dose: 10.0 mg/kg/injection, schedule: Q#A X022 (ip), vehicle: carboxymethylcellulose (CMC)); 8 % of control (dose: 16.0 mg/kg/injection, schedule: Q01DX011 (ip), vehicle: carboxymethylcellulose (CMC)); 6 % of control (dose: 20.0 mg/kg/injection, schedule: Q01DX006 (iv), vehicle: carboxymethylcellulose (CMC)). The T/C was 2 % of control (dose: 20.0 mg/kg/injection, schedule: Q01DX011 (im), vehicle: carboxymethylcellulose (CMC)); 1 % of control (dose: 20.0 mg/kg/injection, schedule: Q01DX011 (ip), vehicle: carboxymethylcellulose (CMC)); 2 % of control (dose: 20.0 mg/kg/injection, schedule: Q#A X022 (ip), vehicle: carboxymethylcellulose (CMC)); 6 % of control under setting [1]; 73 % of control (dose: 27.0 mg/kg/injection, schedule: Q01DX001 (ip), vehicle: carboxymethylcellulose (CMC)); 3 % of control (dose: 32.0 mg/kg/injection, schedule: Q01DX011 (ip), vehicle: carboxymethylcellulose (CMC)). Moreover, the T/C is, setting by setting: (dose: 40.0 mg/kg/injection, schedule: Q01DX006 (iv), vehicle: carboxymethylcellulose (CMC)) 1 % of control; (dose: 40.0 mg/kg/injection, schedule: Q01DX011 (im), vehicle: carboxymethylcellulose (CMC)) 2 % of control; (dose: 40.0 mg/kg/injection, schedule: Q#A X022 (ip), vehicle: carboxymethylcellulose (CMC)) 1 % of control; (dose: 54.0 mg/kg/injection, schedule: Q01DX001 (ip), vehicle: carboxymethylcellulose (CMC)) 59 % of control; (dose: 64.0 mg/kg/injection, schedule: Q01DX011 (ip), vehicle: carboxymethylcellulose (CMC)) 3 % of control; (dose: 75.0 mg/kg/injection, schedule: Q01DX011 (ip), vehicle: carboxymethylcellulose (CMC)) 4 % of control. In addition, the T/C runs as follows: (dose: 107.0 mg/kg/injection, schedule: Q01DX001 (ip), vehicle: carboxymethylcellulose (CMC)) 8 % of control; (dose: 214.0 mg/kg/injection, schedule: Q01DX001 (ip), vehicle: carboxymethylcellulose (CMC)) 5 % of control.

As to `CN(C)S(=O)(=O)c1nc2nc[nH]c(=O)c2[nH]1`, the T/C is, setting by setting: under setting [2], 108 % of control; under setting [3], 158 % of control; under setting [4], 101 % of control; under setting [5], 91 % of control.

Turning to `Cc1nc(N2CC2)nc(N2CC2)c1[N+](=O)[O-]`, the T/C runs as follows: (dose: 0.6 mg/kg/injection, schedule: Q01DX011 (ip), vehicle: methylcellulose (MC)) 47 % of control; (dose: 1.1 mg/kg/injection, schedule: Q01DX011 (ip), vehicle: methylcellulose (MC)) 59 % of control; (dose: 2.25 mg/kg/injection, schedule: Q01DX011 (ip), vehicle: methylcellulose (MC)) 12 % of control.

`NC(=O)NO`: the T/C is, setting by setting: (dose: 15.97 mg/kg/injection, schedule: Q01DX011 (ip), vehicle: carboxymethylcellulose (CMC)) 76 % of control; under setting [1], 111 % of control; (dose: 31.93 mg/kg/injection, schedule: Q01DX011 (ip), vehicle: carboxymethylcellulose (CMC)) 67 % of control; under setting [6], 83 % of control; (dose: 51.08 mg/kg/injection, schedule: Q01DX011 (ip), vehicle: carboxymethylcellulose (CMC)) 56 % of control; (dose: 62.5 mg/kg/injection, schedule: Q01DX011 (ip), vehicle: carboxymethylcellulose (CMC)) 31 % of control. Moreover, the T/C by setting is: (dose: 63.85 mg/kg/injection, schedule: Q01DX011 (ip), vehicle: carboxymethylcellulose (CMC)) 41 % of control and 47 % of control; (dose: 85.13 mg/kg/injection, schedule: Q01DX011 (ip), vehicle: carboxymethylcellulose (CMC)) 53 % of control; under setting [7], 58 % of control; under setting [8], 44 % of control; (dose: 127.7 mg/kg/injection, schedule: Q01DX011 (ip), vehicle: carboxymethylcellulose (CMC)) 22 % of control and 39 % of control; under setting [9], 13 % of control. Also, the T/C reads like this: under setting [10], 6 % of control and 12 % of control and 19 % of control; under setting [11], 19 % of control.

As for `S=c1nc[nH]c2c1ncn2C1CCCCCC1`, the T/C was 65 % of control under setting [8], 88 % of control under setting [10] and 87 % of control under setting [11].

On to `CSc1ncnc2c1ncn2C1OC(CO)C(O)C1O` (stereo not drawn), for which the T/C (dose: 1.9 mg/kg/injection, schedule: Q01DX011 (ip), vehicle: saline) is 102 % of control and 87 % of control; the T/C (dose: 3.0 mg/kg/injection, schedule: Q01DX011 (ip), vehicle: saline) was 90 % of control; the T/C (dose: 6.0 mg/kg/injection, schedule: Q01DX011 (ip), vehicle: saline) is 112 % of control; the T/C (dose: 7.5 mg/kg/injection, schedule: Q01DX011 (ip), vehicle: saline) was 100 % of control and 120 % of control; the T/C (dose: 12.5 mg/kg/injection, schedule: Q01DX011 (ip), vehicle: saline) is 93 % of control.

On to `CN(C)[C@@H]1C(=O)C(C(=O)NCNCCCC(=O)O)=C(O)[C@@]2(O)C(=O)C3=C(O)c4c(O)cccc4[C@@](C)(O)[C@H]3C[C@@H]12`, for which the T/C (dose: 87.5 mg/kg/injection, schedule: Q01DX011 (ip), vehicle: saline) was 106 % of control and 115 % of control; the T/C (dose: 175.0 mg/kg/injection, schedule: Q01DX011 (ip), vehicle: saline) is 54 % of control and 78 % of control; the T/C (dose: 350.0 mg/kg/injection, schedule: Q01DX011 (ip), vehicle: saline) was 51 % of control and 52 % of control.

`O=CCC(O)C(O)C(O)CO` (stereo not drawn): the T/C under setting [8] was 106 % of control and 122 % of control.

For the compound `CC1CN1P(=S)(N1CCCCC1)N1CC1C` (stereo not drawn), the T/C is 51 % of control under setting [1]; 150 % of control under setting [6]; 64 % of control (dose: 56.0 mg/kg/injection, schedule: Q01DX011 (ip), vehicle: carboxymethylcellulose (CMC)); 121 % of control under setting [7]; 19 % of control (dose: 112.0 mg/kg/injection, schedule: Q01DX011 (ip), vehicle: carboxymethylcellulose (CMC)); 102 % of control under setting [9].

On to `CN1CC[C@]23c4c5ccc(O)c4O[C@H]2C(=O)CC[C@@]3(O)[C@H]1C5`, for which the T/C (dose: 4.5 mg/kg/injection, schedule: Q01DX011 (ip), vehicle: methylcellulose (MC)) is 61 % of control and 73 % of control and 74 % of control.

With `CNc1ncnc2c1cnn2C`, the T/C is, setting by setting: (dose: 5.0 mg/kg/injection, schedule: Q01DX011 (ip), vehicle: methylcellulose (MC)) 65 % of control; (dose: 10.0 mg/kg/injection, schedule: Q01DX011 (ip), vehicle: methylcellulose (MC)) 55 % of control; (dose: 20.0 mg/kg/injection, schedule: Q01DX011 (ip), vehicle: methylcellulose (MC)) 29 % of control.

For `O=c1[nH]c(Br)nc2nc[nH]c12`, the T/C is 99 % of control under setting [2], 98 % of control under setting [3], 81 % of control under setting [4] and 92 % of control under setting [5].

In the case of `CC(=O)O[C@]1(C(C)=O)CC[C@H]2[C@@H]3C[C@H](C)C4=CC(=O)CC[C@]4(C)[C@H]3CC[C@@]21C`, the T/C reads like this: (dose: 100.0 mg/kg/injection, schedule: Q01DX011 (sc), vehicle: steriod suspending solution) 89 % of control; (dose: 300.0 mg/kg/injection, schedule: Q01DX011 (sc), vehicle: steriod suspending solution) 78 % of control.

With `Cn1c(=O)c2c(nc(N/N=C/c3cccc(Br)c3)n2C)n(C)c1=O`, the T/C under setting [2] was 93 % of control, the T/C under setting [3] is 111 % of control and the T/C under setting [4] was 88 % of control.
